In the experiment the test system is P388 leukemia ip, CD2F1 mice, survival T/C. Briefly: NCI In Vivo Anticancer Drug Screen. Data for tumor model P388 Leukemia (intraperitoneal) in CD2F1 (CDF1) mice. The following applies: endpoint: median survival time, higher = longer survival. An outline of the steps: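 Mice carrying the transplanted tumor received test compound or vehicle. Survival was recorded in each group, and the value is the treated-group measurement divided by that of the vehicle-treated control group.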

Where [1] appears, read: dose: 100.0 mg/kg/injection, schedule: Q04DX002 (ip), vehicle: saline.
Setting [2] is: dose: 200.0 mg/kg/injection, schedule: Q04DX002 (ip), vehicle: saline.
Where [3] appears, read: dose: 50.0 mg/kg/injection, schedule: Q01DX005 (ip), vehicle: Klucel (hydroxypropylcellulose) (HPC).
Where [4] appears, read: dose: 100.0 mg/kg/injection, schedule: Q01DX005 (ip), vehicle: Klucel (hydroxypropylcellulose) (HPC).
Where [5] appears, read: dose: 200.0 mg/kg/injection, schedule: Q01DX005 (ip), vehicle: Klucel (hydroxypropylcellulose) (HPC).
[6] abbreviates: dose: 60.0 mg/kg/injection, schedule: Q01DX005 (ip), vehicle: Klucel (hydroxypropylcellulose) (HPC).
Setting [7] is: dose: 120.0 mg/kg/injection, schedule: Q01DX005 (ip), vehicle: Klucel (hydroxypropylcellulose) (HPC).
[8] abbreviates: dose: 240.0 mg/kg/injection, schedule: Q01DX005 (ip), vehicle: Klucel (hydroxypropylcellulose) (HPC).
Where [9] appears, read: dose: 100.0 mg/kg/injection, schedule: Q04DX002 (ip), vehicle: saline with Tween-80.
Where [10] appears, read: dose: 200.0 mg/kg/injection, schedule: Q04DX002 (ip), vehicle: saline with Tween-80.
The mark [11] stands for this setting: dose: 12.5 mg/kg/injection, schedule: Q01DX005 (ip), vehicle: saline with Tween-80.
The mark [12] stands for this setting: dose: 25.0 mg/kg/injection, schedule: Q01DX005 (ip), vehicle: saline with Tween-80.
Where [13] appears, read: dose: 50.0 mg/kg/injection, schedule: Q01DX005 (ip), vehicle: saline with Tween-80.
Setting [14] is: dose: 50.0 mg/kg/injection, schedule: Q04DX002 (ip), vehicle: saline with Tween-80.
[15] abbreviates: dose: 200.0 mg/kg/injection, schedule: Q01DX005 (ip), vehicle: saline with Tween-80.
Setting [16] is: dose: 100.0 mg/kg/injection, schedule: Q01DX005 (ip), vehicle: saline with Tween-80.

Where “and” joins values, the source holds several entries; their conditions need not be identical. Equal entries are not always repeated. Inconclusive results and toxic doses are left out. Peptide text beside a SMILES is read from it. * marks the point of attachment. Boc = CC(C)(C)OC(=O)*; NHNH2 = NN*

As for `O=C1NN2CCN=C2c2cnccc21`, the T/C is, setting by setting: under setting [1], 98 % of control; under setting [2], 93 % of control; (dose: 400.0 mg/kg/injection, schedule: Q04DX002 (ip), vehicle: saline) 92 % of control.
For the compound `CC1(C)CC(=O)OC/C=C\CC(Cc2ccccc2)C(=O)C1` (stereo not drawn), the T/C was 104 % of control (dose: 100.0 mg/kg/injection, schedule: Q04DX003 (ip), vehicle: saline); 97 % of control (dose: 200.0 mg/kg/injection, schedule: Q04DX003 (ip), vehicle: saline); 96 % of control (dose: 400.0 mg/kg/injection, schedule: Q04DX003 (ip), vehicle: saline).
`COc1ccc(CC#N)c(C(=O)O)c1`: the T/C by setting is: under setting [3], 106 % of control; under setting [4], 103 % of control; under setting [5], 101 % of control.
Consider `CCOC(=O)CCC(C)(C#N)C(C#N)C(=O)OCC` (stereo not drawn), for which the T/C (dose: 100.0 mg/kg/injection, schedule: Q01DX009 (ip), vehicle: saline with Tween-80) is 100 % of control; the T/C (dose: 100.0 mg/kg/injection, schedule: Q04DX003 (ip), vehicle: saline with Tween-80) was 100 % of control; the T/C (dose: 200.0 mg/kg/injection, schedule: Q04DX003 (ip), vehicle: saline with Tween-80) is 100 % of control; the T/C (dose: 400.0 mg/kg/injection, schedule: Q01DX009 (ip), vehicle: saline with Tween-80) is 100 % of control; the T/C (dose: 400.0 mg/kg/injection, schedule: Q04DX003 (ip), vehicle: saline with Tween-80) is 100 % of control.
In the case of `NC(CCC(=O)NCC(=O)O)C(=O)O` (stereo not drawn), the T/C is, setting by setting: (dose: 50.0 mg/kg/injection, schedule: Q01DX005 (ip), vehicle: saline) 94 % of control; (dose: 100.0 mg/kg/injection, schedule: Q01DX005 (ip), vehicle: saline) 104 % of control; (dose: 200.0 mg/kg/injection, schedule: Q01DX005 (ip), vehicle: saline) 102 % of control.
Consider `COc1ccc(Cc2cc3c(cc2OCC(=O)N(C)C)OCO3)cc1`, for which the T/C reads like this: under setting [3], 103 % of control; under setting [4], 98 % of control; under setting [5], 96 % of control.
Turning to `Cc1cc(N(CCO)CCO)c(OCc2ccccc2)c(N(CCO)CCO)c1`, the T/C was 99 % of control under setting [6], 100 % of control under setting [7] and 98 % of control under setting [8].
On to `O=C1OCc2cc3c(cc2-c2ccccc21)OCO3`, for which the T/C is 95 % of control under setting [9]; 101 % of control under setting [10]; 91 % of control (dose: 400.0 mg/kg/injection, schedule: Q04DX002 (ip), vehicle: saline with Tween-80).
Consider `CC1OC(c2ccc3c(c2O)C(=O)c2ccc(CC(C)(O)CC(=O)O)cc2C3=O)CC(O)C1O` (stereo not drawn), for which the T/C reads like this: under setting [11], 90 % of control; under setting [12], 93 % of control; under setting [13], 96 % of control; (dose: 100.0 mg/kg/injection, schedule: Q01DX005 (ip), vehicle: suspension in saline) 110 % of control; (dose: 200.0 mg/kg/injection, schedule: Q01DX005 (ip), vehicle: suspension in saline) 101 % of control.
Regarding `CCOC(=O)C(Nc1cc([N+](=O)[O-])ccc1C(=O)N1CCCCC1)(C(=O)OCC)N1CCCCC1`, the T/C under setting [6] is 96 % of control, the T/C under setting [7] is 92 % of control and the T/C under setting [8] was 89 % of control.
Consider `O=[n+]1c2ccccc2n([O-])c2ccccc21.[Cl][Ni][Cl]`, for which the T/C is 102 % of control and 94 % of control (dose: 6.25 mg/kg/injection, schedule: Q04DX003 (ip), vehicle: saline with Tween-80); 111 % of control and 121 % of control (dose: 12.5 mg/kg/injection, schedule: Q04DX003 (ip), vehicle: saline with Tween-80); 115 % of control and 121 % of control (dose: 25.0 mg/kg/injection, schedule: Q04DX003 (ip), vehicle: saline with Tween-80); 114 % of control (dose: 50.0 mg/kg/injection, schedule: Q04DX003 (ip), vehicle: saline with Tween-80).
On to `CSCCC(NC(=O)C(Cc1c[nH]c2ccccc12)NC(=O)OC(C)(C)C)C(=O)NN` (stereo not drawn) (Boc-Trp-Met-NHNH2; configuration not given here), for which the T/C by setting is: (dose: 50.0 mg/kg/injection, schedule: Q01DX009 (ip), vehicle: Klucel (hydroxypropylcellulose) (HPC)) 104 % of control and 105 % of control; (dose: 100.0 mg/kg/injection, schedule: Q01DX009 (ip), vehicle: Klucel (hydroxypropylcellulose) (HPC)) 118 % of control; (dose: 200.0 mg/kg/injection, schedule: Q01DX009 (ip), vehicle: Klucel (hydroxypropylcellulose) (HPC)) 119 % of control.
On to `NC(=O)c1c(N)ncnc1N`, for which the T/C runs as follows: (dose: 12.5 mg/kg/injection, schedule: Q04DX002 (ip), vehicle: saline with Tween-80) 102 % of control; (dose: 25.0 mg/kg/injection, schedule: Q04DX002 (ip), vehicle: saline with Tween-80) 104 % of control; under setting [14], 101 % of control.
Turning to `CCn1nccc1N`, the T/C (dose: 6.25 mg/kg/injection, schedule: Q01DX005 (ip), vehicle: saline with Tween-80) is 98 % of control; the T/C under setting [11] was 106 % of control; the T/C under setting [12] is 104 % of control.
Regarding `COC(=O)CCC(=O)CN1C(=O)c2ccccc2C1=O`, the T/C is 106 % of control (dose: 60.0 mg/kg/injection, schedule: Q01DX005 (ip), vehicle: saline with Tween-80); 111 % of control (dose: 120.0 mg/kg/injection, schedule: Q01DX005 (ip), vehicle: saline with Tween-80); 111 % of control (dose: 240.0 mg/kg/injection, schedule: Q01DX005 (ip), vehicle: saline with Tween-80).
Consider `CC12CCCCC1=CC(=O)CC2` (stereo not drawn), for which the T/C is, setting by setting: (dose: 12.5 mg/kg/injection, schedule: Q01DX009 (ip), vehicle: other) 97 % of control; (dose: 25.0 mg/kg/injection, schedule: Q01DX009 (ip), vehicle: other) 100 % of control; (dose: 25.0 mg/kg/injection, schedule: Q01DX009 (ip), vehicle: saline + Tween-80 + alcohol) 100 % of control; (dose: 50.0 mg/kg/injection, schedule: Q01DX009 (ip), vehicle: other) 107 % of control; (dose: 50.0 mg/kg/injection, schedule: Q01DX009 (ip), vehicle: saline + Tween-80 + alcohol) 100 % of control; (dose: 100.0 mg/kg/injection, schedule: Q01DX009 (ip), vehicle: saline + Tween-80 + alcohol) 104 % of control and 114 % of control. In addition, the T/C (dose: 200.0 mg/kg/injection, schedule: Q01DX009 (ip), vehicle: saline + Tween-80 + alcohol) is 106 % of control.
Regarding `O=C(NC(O)C(Cl)(Cl)Cl)c1ccccc1` (stereo not drawn), the T/C is 95 % of control under setting [11], 102 % of control under setting [12], 100 % of control under setting [13] and 96 % of control under setting [15].
Regarding `CS(=O)CC1OC2OC3C(CO)OC(OC4C(CO)OC(OC5C(CO)OC(OC6C(CO)OC(OC7C(CO)OC(OC8C(CO)OC(OC1C(O)C2O)C(O)C8O)C(O)C7O)C(O)C6O)C(O)C5O)C(O)C4O)C(O)C3O` (stereo not drawn), the T/C is 100 % of control (dose: 60.0 mg/kg/injection, schedule: Q01DX005 (ip), vehicle: saline); 106 % of control (dose: 120.0 mg/kg/injection, schedule: Q01DX005 (ip), vehicle: saline); 104 % of control (dose: 240.0 mg/kg/injection, schedule: Q01DX005 (ip), vehicle: saline).
In the case of `O=C(Nc1nncs1)c1cccs1`, the T/C under setting [14] was 100 % of control; the T/C (dose: 50.0 mg/kg/injection, schedule: Q04DX002 (ip), vehicle: saline) is 113 % of control; the T/C under setting [16] is 103 % of control; the T/C under setting [9] was 104 % of control and 114 % of control; the T/C under setting [1] was 106 % of control; the T/C under setting [15] was 101 % of control. Besides, the T/C is 114 % of control under setting [10]; 122 % of control under setting [2]; 96 % of control (dose: 400.0 mg/kg/injection, schedule: Q01DX005 (ip), vehicle: saline with Tween-80); 160 % of control (dose: 600.0 mg/kg/injection, schedule: Q04DX002 (ip), vehicle: saline with Tween-80); 104 % of control (dose: 800.0 mg/kg/injection, schedule: Q01DX005 (ip), vehicle: saline with Tween-80).
In the case of `C/C(=N\NC(=S)Nc1ccc(C(=O)O)cc1)c1nccc2ccccc12`, the T/C under setting [13] was 100 % of control, the T/C under setting [16] was 90 % of control and the T/C under setting [15] is 90 % of control.

(Values after PubChem BioAssay AID330 (DTP/NCI, 2004).)
